Laboratory results from patent publication US20220062383A1, “REGULATION OF A FOREIGN BODY RESPONSE” (THE JOHNS HOPKINS UNIVERSITY, priority 2019, published 2022).

What was measured:
[1] = tested on: foreign body response to PCL implants (volumetric muscle loss model); experiment: qRT-PCR gene expression in tissue of PCL-implanted mice after IL17A/F NAb and/or senolytic treatment; type: in vivo, C57BL/6 mice; conditions: PCL implant
Experimental: All animal procedures were performed in accordance with an approved JHU IACUC protocol. Female mice were aged six to eight weeks-old. Several strains were utilized, including wild type C57BL/6j (Jackson Laboratories, Stock #00064), Rag2/OT-II (Taconic Stock #11490), IL17A-/- and IL17RA-/- (courtesy of Dr. Yoichiro Iwakura, University of Tokyo, Tokyo, Japan and Dr. Tomas Mustelin, Amgen, Seattle, respectively). Defects in muscle for material implantation were created as previously described (68). The resulting bilateral muscle defects were filled with 30 mg of a synthetic material. Synthetic materials tested include PCL (particulate, Mn=50000 g/mol, mean particle size<600 μm, Polysciences), ultrahigh molecular weight PE (particulate, Mn=5000 k g/mol, mean particle size=150 μm, Goodfellow), medical graded Silicone (sheet, Summit Medical), PEG hydrogels. PEG hydrogels were made with polyethylene glycol-diacrylate (PEG-DA, Mn=3400). PEG-DA (Polysciences) in PBS at 10% w/v concentration was mixed with photoinitiator (Irgacure 2959 solubilized to 10% w/v in 70% ethanol) to a final concentration of 0.05%. A 50 μL volume solution was cast onto each well of a flat bottom 96 wells plate. The solution was photocrosslinked via UV light for 30 mins to form a hydrogel sheet. Both silicone and PEG hydrogels were morselized into particles with a scalpel and placed into the defect. Control implants were injected with 50 μL of PBS (as a no implant control). All materials were UV sterilized prior to use. Directly after surgery, mice were given subcutaneous carprofen (Rimadyl®, Zoetis) at 5 mg/kg for pain relief. Mice were euthanized, and their implants were extracted at different time points: 1, 3, 6, or 12-weeks post-surgery. Additional modes of implantation were subcutaneous and intra-muscular injection. Briefly, synthetic materials were implanted subcutaneously (30 mg) on both flanks of the mice, or injected directly into the quadricep muscles through a 16 G syringe (5 mg of materials). Total RNA was isolated from whole tissue using TRIzol reagent and Qiagen's RNeasy kits. qRT-PCR was performed using Power SYBR Green Master Mix (Applied Biosystems) or TaqMan Gene Expression Master Mix (Applied Biosystems) according to manufacturer's instructions. Briefly, 2 μg of total RNA was used to synthesize cDNA using Superscript IV VILO Master Mix (ThermoFisher Scientific). The cDNA concentration was set to 50 ng/well (in a total volume of 20 μL PCR reaction). The qRT-PCR reactions were performed on the StepOne Plus Real-Time PCR System (ThermoFisher Scientific) using manufacturer recommended settings for quantitative and relative expression. Mice received 100 μl intraperitoneal (IP) injections of anti-IL17A (100 μg/ml, Cat #P13705.15) and anti-IL17F (100 μg/ml, Cat #P56220.17) (provided by Amgen) or isotype control (rat IgG2a, ThermoFisher Scientific, Cat #02-9688) every other day for a week. IL6 blocking antibody was administrated at 100 μg/ml (BioXCell, clone MP5-20F3) per mouse per day for 5 consecutive days. For senolytic treatment, mice received IP and intramuscular (IM) injections of Navitoclax (100 mg/kg, Selleckchem, Cat #HY-10087) for 5 consecutive days or vehicle control (5% DMSO, 3% Tween 80 in PBS). Co-administration of anti-I[…] and senolytic treatment were also evaluated. All mice received treatments at 4-weeks post-surgery for a total of 5 injections (1 injection per day per mouse), and were harvested in the following 2 weeks. The nCounter differential gene expression system was used to assess readable transcripts via the nanoString PanCancer Immune Profiling Panel. We utilized the nSolver software (version 3.0, nanoString Technologies, Inc.). All analyses of qRT-PCR data utilized the Livak Method, wherein ΔΔCt values are calculated, and then reported as relative quantification values calculated by […] (69). Treatment data points are normalized to either healthy or saline treated controls. β2M was utilized as the reference gene. […]

[2] = tested on: fibrosis around PCL implants (volumetric muscle loss model); experiment: Histology and immunofluorescence (αSMA, picrosirius red) of fibrosis around PCL implants after treatment; type: in vivo, C57BL/6 mice; conditions: PCL implant; treatment 4 weeks after implantation; tissue at 6 weeks; vs isotype or vehicle control
Experimental: All animal procedures were performed in accordance with an approved JHU IACUC protocol. Female mice were aged six to eight weeks-old. Several strains were utilized, including wild type C57BL/6j (Jackson Laboratories, Stock #00064), Rag2/OT-II (Taconic Stock #11490), IL17A-/- and IL17RA-/- (courtesy of Dr. Yoichiro Iwakura, University of Tokyo, Tokyo, Japan and Dr. Tomas Mustelin, Amgen, Seattle, respectively). Defects in muscle for material implantation were created as previously described (68). The resulting bilateral muscle defects were filled with 30 mg of a synthetic material. Synthetic materials tested include PCL (particulate, Mn=50000 g/mol, mean particle size<600 μm, Polysciences), ultrahigh molecular weight PE (particulate, Mn=5000 k g/mol, mean particle size=150 μm, Goodfellow), medical graded Silicone (sheet, Summit Medical), PEG hydrogels. PEG hydrogels were made with polyethylene glycol-diacrylate (PEG-DA, Mn=3400). PEG-DA (Polysciences) in PBS at 10% w/v concentration was mixed with photoinitiator (Irgacure 2959 solubilized to 10% w/v in 70% ethanol) to a final concentration of 0.05%. A 50 μL volume solution was cast onto each well of a flat bottom 96 wells plate. The solution was photocrosslinked via UV light for 30 mins to form a hydrogel sheet. […] Co-administration of anti-I[…] and senolytic treatment were also evaluated. […]

[3] = treatment 4 weeks after implantation, tissue at 6 weeks
[4] = treatment at 4 weeks, 6 weeks after implantation

CC1(C)CCC(c2ccc(Cl)cc2)=C(CN2CCN(c3ccc(C(=O)NS(=O)(=O)c4ccc(N[C@H](CCN5CCOCC5)CSc5ccccc5)c(S(=O)(=O)C(F)(F)F)c4)cc3)CC2)C1 [Navi, Navitoclax]
p16INK4a gene expression (senolysis) ([1]; one week after treatment, 6 weeks after implantation, p<0.0001): significantly decreased
Il17a (IL17) gene expression ([1]; treatment 4 weeks after implantation, 5 injections, tissue at 6 weeks, vs isotype or vehicle control): decreased
Collagen I gene expression [1, 3]: decreased
Tgfβ gene expression [1, 3]: decreased
Il16 gene expression [1, 4]: decreased
S100a4 gene expression [1, 4]: decreased
collagen III gene expression [1, 4]: decreased
αSMA immunofluorescence [2]: reduced
